Assay results taken from paper PMC11513893, “Discovery of Oral Degraders of the ROS1 Fusion Protein with Potent Activity against Secondary Resistance Mutations” (Journal of Medicinal Chemistry, 2024).

Key:
[1] = test system: Ba/F3 cell lines engineered to express the oncogenic ROS1 rearrangement; conditions: cited from earlier work
Ba/F3 ROS1 L2086F = assay: Antiproliferation assay; assay type: cell-based; conditions: Mus musculus, BaF3; Ba/F3 cells, cell growth inhibition
Excerpt: To assess targeted degradation of ROS1 fusion proteins, we first established a mouse pro-B cell line Ba/F3 as a model expressing the CD74-ROS1 oncogene or CD74-ROS1 with clinically observed secondary/tertiary mutations. The Ba/F3 cell line is dependent on interleukin-3 for survival and proliferation. Upon transduction of oncogenic ROS1, Ba/F3 cells become independent of interleukin-3 but dependent on the transduced driver gene. The Ba/F3 models have been effectively employed in the discovery and preclinical development of next generation ROS1 inhibitors.[11],[14],[15] We have tested ROS1 inhibitors against these Ba/F3 cells to validate their sensitivity and resistance to ROS1 inhibition.
(§1) Ba/F3 immortalized murine bone marrow–derived pro-B cells were obtained from Creative Biogene (Shirley, NY) and cultured in RPMI supplemented with 10% FBS and IL3 (0.5 ng/mL). Ba/F3 cells expressing ROS1 variants were maintained in RPMI supplemented with 10% FBS and puromycin (0.7 mg/mL). Crizotinib, ceritinib, brigatinib, repotrectinib, and lorlatinib were purchased from MedChem Express. Each compound was dissolved in DMSO and serially diluted in RPMI for cell culture experiments.
(§2) To assess the 72 h effect of drug treatment on cell proliferation, 2000 to 3000 cells were plated in replicates of three in 96-well plates. The plates were placed in an incubator at 37 °C, 5% CO2 for 72 h. Following drug treatments, the cells were incubated with the Alamar Blue Assay reagent (BioRad), 5 μL each well for 4 h at 37 °C and 5% CO2. Luminescence was measured on a multiplate reader and analyzed. […] IC50 values were determined using a nonlinear regression model with a sigmoidal dose response in GraphPad. The data were collected based on triplicate experiments, and presented as mean ± SD.
cDNA encoding CD74-ROS1 or mutant CD74–ROS1 was cloned into retroviral expression vectors (pLenti), and viruses were generated in HEK293T cells by transfecting with packaging plasmids. The resulting virus was used to infect Ba/F3 cells. After retroviral infection, Ba/F3 cells were selected by incubation with puromycin (0.7 mg/mL) for 2 weeks. For Ba/F3 cells infected by the CD74–ROS1 variants, IL3 was withdrawn from the culture medium at least 2 weeks before the experiments.

Ba/F3 ROS1 L2026M = assay: Antiproliferation assay; assay type: cell-based; conditions: Mus musculus, BaF3; Ba/F3 cells, cell growth inhibition
Excerpt: (§3) To assess targeted degradation of ROS1 fusion proteins, we first established a mouse pro-B cell line Ba/F3 as a model expressing the CD74-ROS1 oncogene or CD74-ROS1 with clinically observed secondary/tertiary mutations. The Ba/F3 cell line is dependent on interleukin-3 for survival and proliferation. Upon transduction of oncogenic ROS1, Ba/F3 cells become independent of interleukin-3 but dependent on the transduced driver gene.
as §1, with “Crizotinib, ceritinib, brigatinib, repotrectinib, and lorlatinib were purchased from MedChem Express.” left out
as §2
(§4) The resulting virus was used to infect Ba/F3 cells. After retroviral infection, Ba/F3 cells were selected by incubation with puromycin (0.7 mg/mL) for 2 weeks. For Ba/F3 cells infected by the CD74–ROS1 variants, IL3 was withdrawn from the culture medium at least 2 weeks before the experiments.

Ba/F3 ROS1 G2032R-F2075V = assay: Antiproliferation assay; assay type: cell-based; conditions: Mus musculus, BaF3; Ba/F3 cells, cell growth inhibition
Excerpt: as §3
as §1, with “Crizotinib, ceritinib, brigatinib, repotrectinib, and lorlatinib were purchased from MedChem Express.” left out
as §2, §4

Ba/F3 ROS1 D2033N = assay: Antiproliferation assay; assay type: cell-based; conditions: Mus musculus, BaF3; Ba/F3 cells, cell growth inhibition
Excerpt: as §3
as §1, with “Crizotinib, ceritinib, brigatinib, repotrectinib, and lorlatinib were purchased from MedChem Express.” left out
as §2, §4

[2] = test system: Ba/F3 CD74-ROS1 non mutant; assay: Antiproliferation assay (Alamar Blue, 72 h); assay type: cell-based, mouse; conditions: Mus musculus, BaF3, 72 h, Ba/F3 cells, cell growth inhibition
Ba/F3 ROS1-G2032R = assay: Antiproliferation assay; assay type: cell-based, mouse; conditions: Mus musculus, BaF3; Ba/F3 cells, cell growth inhibition, 72 h
[3] = test system: Ba/F3 SLC34A2-ROS1 G2032R xenograft tumors; assay: Mouse efficacy study, Ba/F3 SLC34A2-ROS1 G2032R xenograft; assay type: in vivo; conditions: NOD/SCID mice, 30 mg/kg PO qd
Description: (§5) All the procedures related to animal handling, care, and treatment in this study were performed according to guidelines approved by the Institutional Animal Care and Use Committee (IACUC) of Xavier University of Louisiana following the guidance of the AAALAC. Ba/F3-ROS1 and Ba/F3-ROS1-G2032R cells were maintained in RPMI 1640 medium supplemented with 10% fetal bovine serum. The cells growing in an exponential growth phase were harvested and counted for tumor inoculation. Female NOD/SCID mice 6–8 weeks of age were allowed to adapt to laboratory conditions for 10 days prior to dosing and were allowed food and water ad libitum. Each mouse was inoculated subcutaneously in the right flank with Ba/F3 CD74-ROS1 or Ba/F3 SL34A2-ROS1 G2032R cells (1 × 10^6) in 0.2 mL of PBS mixed with Matrigel (50:50) for tumor development.

[4] = test system: Ba/F3 CD74-ROS1 WT xenograft tumors; assay: Mouse efficacy study, Ba/F3 CD74-ROS1 xenograft; assay type: in vivo; conditions: NOD/SCID mice, 30 mg/kg PO qd
Description: as §5

[5] = design: method as in PMID 30980071; conditions: patients; cited from earlier work

IC50 (Ba/F3 ROS1 L2086F) [nM] | IC50 (Ba/F3 ROS1 L2026M) [nM] | IC50 (Ba/F3 ROS1 G2032R-F2075V) [nM] | IC50 (Ba/F3 ROS1 D2033N) [nM] | IC50 [2] [nM] | IC50 (Ba/F3 ROS1-G2032R) [nM] | Compound | IC50 [1] [nM] | TGI (tumor growth inhibition) [3] [%] | TGI (tumor growth inhibition) [4] [%] | objective response rate [5] [%] | progression-free survival [5] [months]
215 ± 33 | 43 ± 5 | > 2000 | 135 ± 27 | 14.5 ± 2.2 | 821 ± 148 | Cc1cc(Nc2ncc(Cl)c(Nc3ccccc3S(=O)(=O)C(C)C)n2)c(OC(C)C)cc1C1CCNCC1 [ceritinib] | 180 |  |  |  | 
745 ± 88 |  | > 2000 | 187 ± 39 |  | > 2000 | C[C@@H](Oc1cc(-c2cnn(C3CCNCC3)c2)cnc1N)c1c(Cl)ccc(F)c1Cl [crizotinib] |  | 7 | 35 | 72 | 19.2
